Assay results taken from patent publication US10206394B2, “Herbicidal compounds” (Syngenta Participations AG, priority 2014, dated 2019).
Read-outs that look alike come from different tables or passages of the source.

Legend:
Experiment in all cases: Glasshouse assay for herbicidal activity (pre- and post-emergence), percentage phytotoxicity
Format in all cases: in vivo
[1] = tested on: Alopecurus myosuroides (ALOMY); details: Alopecurus myosuroides, rate 250 g/ha
Summary of the method: (§1)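 Pot-grown plants treated one day after sowing (pre-emergence) or at about 12 days (post-emergence); glasshouse at 24/18° C (warm) or 20/16° C (cool species) day/night, 16 h light, 65% humidity. Visual % phytotoxicity (0 = none, 100 = total damage) scored at 15 DAA post or 20 DAA pre.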

[2] = tested on: Echinochloa crus-galli (ECHCG); details: Echinochloa crus-galli, rate 250 g/ha
Summary of the method: as §1

Lolium perenne (LOLPE) = details: Lolium perenne, rate 250 g/ha
Summary of the method: as §1

Avena fatua (AVEFA) = details: Avena fatua, rate 250 g/ha
Summary of the method: as §1

[3] = post-emergence, 360 h, POST-emergence, visual score 15 DAA (100%=total damage, 0%=no damage), read-out: Post-emergence herbicidal activity (percentage phytotoxicity) ALOMY POST
[4] = pre-emergence, 480 h, PRE-emergence, visual score 20 DAA (100%=total damage, 0%=no damage), read-out: Pre-emergence herbicidal activity (percentage phytotoxicity) ALOMY PRE
[5] = post-emergence, 360 h, POST-emergence, visual score 15 DAA (100%=total damage, 0%=no damage), read-out: Post-emergence herbicidal activity (percentage phytotoxicity) ECHCG POST
[6] = pre-emergence, 480 h, PRE-emergence, visual score 20 DAA (100%=total damage, 0%=no damage), read-out: Pre-emergence herbicidal activity (percentage phytotoxicity) ECHCG PRE
[7] = post-emergence, 360 h, POST-emergence, visual score 15 DAA (100%=total damage, 0%=no damage), read-out: Post-emergence herbicidal activity (percentage phytotoxicity) LOLPE POST
[8] = pre-emergence, 480 h, PRE-emergence, visual score 20 DAA (100%=total damage, 0%=no damage), read-out: Pre-emergence herbicidal activity (percentage phytotoxicity) LOLPE PRE
[9] = post-emergence, 360 h, POST-emergence, visual score 15 DAA (100%=total damage, 0%=no damage), read-out: Post-emergence herbicidal activity (percentage phytotoxicity) AVEFA POST
[10] = pre-emergence, 480 h, PRE-emergence, visual score 20 DAA (100%=total damage, 0%=no damage), read-out: Pre-emergence herbicidal activity (percentage phytotoxicity) AVEFA PRE

Structure (SMILES) | pest or weed control at 250 g/ha [1, 3] [%] | pest or weed control at 250 g/ha [1, 4] [%] | pest or weed control at 250 g/ha [2, 5] [%] | pest or weed control at 250 g/ha [2, 6] [%] | pest or weed control at 250 g/ha (Lolium perenne (LOLPE); [7]) [%] | pest or weed control at 250 g/ha (Lolium perenne (LOLPE); [8]) [%] | pest or weed control at 250 g/ha (Avena fatua (AVEFA); [9]) [%] | pest or weed control at 250 g/ha (Avena fatua (AVEFA); [10]) [%]
C=CCNC(=O)CC1CC(=O)C(c2c(C)cc(-n3cc(Cl)cn3)cc2C)C1=O (centres unmarked) [Compound B226] | 100 | 100 | 100 | 100 | 90 | 80 | 90 | 90
Cc1cc(-n2cc(Cl)cn2)cc(C)c1C1C(=O)CC(CC(=O)NCC2CC2)C1=O (centres unmarked) [Compound B227] | 100 | 80 | 100 | 80 | 90 | 80 | 100 | 80
CCN(C)C(=O)CC1CC(=O)C(c2c(C)cc(-n3cc(Cl)cn3)cc2C)C1=O (centres unmarked) [Compound B228] | 100 | 100 | 100 | 90 | 100 | 100 | 100 | 90
Cc1cc(-n2cc(Cl)cn2)cc(C)c1C1C(=O)CC(CC(=O)N(C)C(C)(C)C)C1=O (centres unmarked) [Compound B229] | 80 | 90 | 100 | 100 | 70 | 90 | 80 | 90
C#CCN(C)C(=O)CC1CC(=O)C(c2c(C)cc(-n3cc(Cl)cn3)cc2C)C1=O (centres unmarked) [Compound B230] | 100 | 90 | 100 | 100 | 90 | 90 | 100 | 90
CCc1cc(-n2cc(Cl)cn2)cc(C)c1C1C(=O)CC(CC(=O)NCc2cccc(Cl)c2)C1=O (centres unmarked) [Compound B231] | 90 | 50 | 90 | 80 | 90 | 80 | 100 | 20
CCc1cc(-n2cc(Cl)cn2)cc(C)c1C1C(=O)CC(CC(=O)NCc2cccc(F)c2)C1=O (centres unmarked) [Compound B232] | 100 | 90 | 100 | 90 | 100 | 90 | 100 | 70
CCc1cc(-n2cc(Cl)cn2)cc(C)c1C1C(=O)CC(CC(=O)NCc2ccc(OC)cc2)C1=O (centres unmarked) [Compound B233] | 60 | 70 | 100 | 70 | 70 | 70 | 70 | 60
CCc1cc(-n2cc(Cl)cn2)cc(C)c1C1C(=O)CC(CC(=O)NCc2ccc(C#N)cc2)C1=O (centres unmarked) [Compound B234] | 90 | 60 | 90 | 70 | 80 | 70 | 100 | 80
CCc1cc(-n2cc(Cl)cn2)cc(C)c1C1C(=O)CC(CC(=O)NC(C)C)C1=O (centres unmarked) [Compound B235] | 100 | 100 | 100 | 100 | 100 | 100 | 100 | 100
